Tests used:
mice = conditions: cited from earlier work
Swiss Webster mice [1] = assay: abdominal contortion model induced by acetic acid; assay type: in vivo; conditions: oral administration; for DI50: dose reducing response by 50%, 95% limits; for IM (%): inhibition of number of contortions
Description: The experimental acetic acid induced abdominal contortion model allows assessment of the antinociceptive activity of various substances that act both at central and peripheral levels. Nociceptive response is induces by the intraperitonal injection of acetic acid (0.6%) diluted in saline solution (0.9%). The abdominal contortions consist in the contraction of the abdominal muscles combined with the extension of one of the rear paws.
Each analysis was performed using 8 to 10 male animals (Swiss Webster mice) weighing between 25 and 30 g. The dose was calculated individually for each animal with the quantity in mg/kg (mg/1.000 g) of the substance to be administrated being in accordance to its weight. The injected volume of the solutions followed the rule of 0.1 ml/10 g of the animal's weight.
(§1) Parametric statistical tests were performed on the models described above. The results were submitted to ANOVA variance analysis followed by appropriate post hoc tests. […] The statistical analyses of the results were performed by means of variance analysis followed by the multiple comparison test using the Dunnett method, when appropriate. Values of p<0.05 were considered to indicate significance. The DI50 was estimated by means of individual experiments using GraphPad Instat statistical software.

Swiss Webster mice [2] = assay: formalin induced pain model (Phase I, Phase II, edema); assay type: in vivo; conditions: oral administration
Text: This model is more specific than the acetic acid induced abdominal contortion model. It allows the assessment of two distinct types of pain: the pain of neurogenic origin (direct stimulation of the nociceptive neurons) and of inflammatory origin, representing the tonic response to pain, accompanied by an inflammatory response related to the release of chemical inflammation mediators. […] Immediately after the formalin injection, the animals were placed under a glass dome surrounded by mirrors in order to facilitate observation of the ensuing behaviour. Observation commenced immediately, initially timing the reaction to pain during the first 5 minutes after the formalin injection (corresponding to the period of neurogenic pain). Following an interval of 10 minutes, the licking times were recorded for a further 15 minutes (corresponding to the inflammatory pain). Total test time was of 30′.
At the end of this observation period, the animals were sacrificed by cervical displacement and the rear paws were removed at the tibiotarsal region and weighed on an analytical balance to quantify the edema induced by the formalin. The difference in weight (in mg) between the right paw (injected with formalin) and the left paw (injected with saline) was considered the rate of edema. […] Each analysis was performed using 8 to 10 male animals (Swiss Webster mice) weighing between 25 and 30 g.
The dose was calculated individually for each animal with the quantity in mg/kg (mg/1.000 g) of the substance to be administrated being in accordance to its weight. The injected volume of the solutions followed the rule of 0.1 ml/10 g of the animal's weight.
The animals were observed after the intraplantar injection of formalin for a period of 30 minutes. The reaction time (time in which the animal remains licking the injected paw) is then quantified in each of the phases: phase I (neurogenic pain—5 min observation) and phase II (inflammatory pain—15 min observation).
as §1

Structure (SMILES) | analgesia, potency relative to aspirin (mice; Meyre-Silva et al. 1999) | DI50 (Swiss Webster mice [1]) [mg/kg] | IM (%) (Swiss Webster mice [1]) | DI50 (Swiss Webster mice [2]; Edema) [mg/kg] | IM (%) (Swiss Webster mice [2]; Edema) | DI50 (Swiss Webster mice [2]; Phase I (neurogenic)) [mg/kg] | IM (%) (Swiss Webster mice [2]; Phase I (neurogenic)) | DI50 (mg/kg) (Swiss Webster mice [2]; Phase II (inflammatory)) | IM (%) (Swiss Webster mice [2]; Phase II (inflammatory)) | DI50 (mg/kg) (Swiss Webster mice [2]; Phase I (neurogenic)) | analgesic effect on acetic acid induced abdominal contortions (mice; Meyre-Silva et al. 1998, 1999)
COc1cc2oc(-c3ccc(O)cc3)cc(=O)c2c(O)c1[C@@H]1O[C@H](CO)[C@@H](O)[C@H](O)[C@H]1O[C@@H]1O[C@@H](C)[C@H](O)[C@@H](O)[C@H]1O [2″-O-rhamnosylswertisin] | approximately 16 times | – | – | – | – | – | – | – | – | – | –
CC(=O)Oc1ccccc1C(=O)O [AAS] | – | 364.1 | 64.5 | >500 | 31.7 | >500 | 12.7 | 408.87 (391.47-427.03) mg/kg | 65.7 | – | –
O=C(O)Cc1ccccc1Nc1c(Cl)cccc1Cl [Diclophenac] | – | 443.07 | 51.6 | >500 | 33.7 | – | 68.8 | – | 82.5 | 407.48 (357.56-464.37) mg/kg | –
COc1ccc2c(c1)c(CC(=O)O)c(C)n2C(=O)c1ccc(Cl)cc1 [Indomethacin] | – | 189.95 | 72.0 | >300 | 36.5 | >300 | 7.2 | 263.42 (239.83-289.35) mg/kg | 53.1 | – | –
COc1cc2oc(-c3ccc(O)cc3)cc(=O)c2c(O)c1[C@@H]1O[C@H](CO)[C@@H](O)[C@H](O)[C@H]1O [swertisin] | – | – | – | – | – | – | – | – | – | – | did not have an analgesic effect
